Test results published in ChEMBL document CHEMBL4837239, “Identification of Thieno[3,2-d]pyrimidine Derivatives as Dual Inhibitors of Focal Adhesion Kinase and FMS-like Tyrosine Kinase 3” (J Med Chem, 2021).
Calls of active or inactive are those of the source. The rule behind the calls is not given here.

Tests used:
[1] = target: Tyrosine-protein kinase Fes/Fps (Homo sapiens, UniProt P07332); experiment: Inhibition of Fes (unknown origin) at 0.1 uM
[2] = target: Epithelial discoidin domain-containing receptor 1 (Homo sapiens, UniProt Q08345); experiment: Inhibition of DDR1 (unknown origin)
[3] = tested on: HCT-116; experiment: Induction of apoptosis in human HCT-116 cells assessed as cleaved PARP at 0.1 to 10 uM incubated for 24 hrs by Western blot analysis; assay type: functional, cell-based; conditions: dose 0.1-10 µM
[4] = target: Ephrin type-B receptor 1 (Homo sapiens) (UniProt P54762); experiment: Inhibition of EphB1 (unknown origin) at 0.1 uM
[5] = target: T1, Focal adhesion kinase 1 (Homo sapiens, UniProt Q05397); experiment: Inhibition of FAK in human HCT-116 cells assessed as inhibition of Pyk2 phosphorylation at 0.5 to 5 uM incubated for 24 hrs by Western blot analysis; assay type: cell-based; conditions: dose 0.5-5 µM
[6] = Metabolic stability in human liver microsomes assessed as compound remaining at 1 uM measured after 1 hr; assay type: ADME, Microsome; conditions: read-out: Stabilty
[7] = target: Proto-oncogene tyrosine-protein kinase receptor Ret (Homo sapiens, UniProt P07949); experiment: Inhibition of RET (unknown origin)
[8] = Inhibition of FYK Y379 mutant phosphorylation in human MDA-MB-231 cells by in-cell western blot assay; assay type: cell-based
[9] = target: CYP2D6 (Homo sapiens, UniProt P10635); experiment: Inhibition of CYP2D6 (unknown origin) at 10 uM relative to control; assay type: ADME
[10] = tested on: T2, Receptor-type tyrosine-protein kinase FLT3 (Homo sapiens), P36888 [D835Y]; experiment: Inhibition of FLT3-D835Y mutant (unknown origin) expressed in mouse BaF3 cells assessed as decrease in STAT5 phosphorylation at 1 nM by Western blot analysis; assay type: cell-based
T2 sequence (whole entry): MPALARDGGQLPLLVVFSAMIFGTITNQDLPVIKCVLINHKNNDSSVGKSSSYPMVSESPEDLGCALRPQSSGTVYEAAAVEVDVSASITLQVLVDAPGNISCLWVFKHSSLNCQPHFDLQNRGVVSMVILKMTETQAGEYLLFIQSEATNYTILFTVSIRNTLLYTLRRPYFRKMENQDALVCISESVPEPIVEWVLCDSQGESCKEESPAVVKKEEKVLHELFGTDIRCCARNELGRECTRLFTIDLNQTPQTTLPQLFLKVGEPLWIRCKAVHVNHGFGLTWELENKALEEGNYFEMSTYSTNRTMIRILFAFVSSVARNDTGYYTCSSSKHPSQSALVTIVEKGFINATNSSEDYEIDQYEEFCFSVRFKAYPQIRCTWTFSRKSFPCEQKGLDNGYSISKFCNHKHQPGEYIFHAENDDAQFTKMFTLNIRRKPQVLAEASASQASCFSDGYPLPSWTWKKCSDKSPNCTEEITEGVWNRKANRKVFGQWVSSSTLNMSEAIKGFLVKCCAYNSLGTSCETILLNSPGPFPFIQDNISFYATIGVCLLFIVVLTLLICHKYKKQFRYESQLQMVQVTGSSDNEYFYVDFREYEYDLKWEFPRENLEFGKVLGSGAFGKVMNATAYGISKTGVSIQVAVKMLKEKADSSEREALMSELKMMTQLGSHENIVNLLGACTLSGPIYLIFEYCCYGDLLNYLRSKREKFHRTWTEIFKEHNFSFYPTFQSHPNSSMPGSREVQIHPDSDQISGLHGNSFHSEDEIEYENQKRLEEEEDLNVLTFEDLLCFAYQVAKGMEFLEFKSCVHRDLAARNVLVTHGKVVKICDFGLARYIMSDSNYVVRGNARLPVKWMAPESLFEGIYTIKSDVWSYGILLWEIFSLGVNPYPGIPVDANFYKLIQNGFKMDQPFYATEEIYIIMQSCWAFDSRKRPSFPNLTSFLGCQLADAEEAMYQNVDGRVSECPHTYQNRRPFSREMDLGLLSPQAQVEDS

[11] = target: CYP2C9 (Homo sapiens, UniProt P11712); experiment: Inhibition of CYP2C9 (unknown origin) at 10 uM relative to control; assay type: ADME
[12] = target: Tyrosine-protein kinase JAK1 (Homo sapiens, UniProt P23458); experiment: Inhibition of JAK1 (unknown origin)
[13] = Antimigratory activity in human HCT-116 cells assessed as suppression of migration at 1 uM measured after 12 hrs by scratch wound healing assay; assay type: functional
[14] = tested on: BaF3; experiment: Antiproliferative activity against mouse Ba/F3 cells harbouring FLT3 D835Y mutant assessed as growth inhibition measured after 72 hrs by CellTiter-Glo assay; assay type: functional; conditions: Mus musculus, BaF3
[15] = tested on: MV4-11; experiment: In vivo antitumor activity against human MV4-11 cells xenografted in mouse assessed as tumor growth inhibition at 50 mg/kg, po; assay type: functional; conditions: MV4-11, po
[16] = tested on: MDA-MB-231; experiment: Induction of apoptosis in human MDA-MB-231 cells assessed as cleaved caspase-3 at 0.1 to 10 uM incubated for 24 hrs by Western blot analysis; assay type: functional, cell-based; conditions: dose 0.1-10 µM
[17] = target: T1, Focal adhesion kinase 1; experiment: Inhibition of FAK (unknown origin) at 0.1 uM
[18] = target: T1, Focal adhesion kinase 1; experiment: Inhibition of FAK autophosphorylation at Y576 in human MDA-MB-231 cells at 5 uM incubated for 24 hrs by Western blot analysis; assay type: cell-based
[19] = Toxicity in NSG orthotopic mouse xenografted with human MDA-MB-231 cells assessed as change in body weight at 40 to 70 mg/kg, po once daily measured for 2 weeks; assay type: organism-based; conditions: in vivo, 336 h, dose 40-70 mg/kg
[20] = target: Tyrosine-protein kinase Fyn (Homo sapiens, UniProt P06241); experiment: Inhibition of Fyn (unknown origin)
[21] = target: Non-receptor tyrosine-protein kinase TYK2 (Homo sapiens, UniProt P29597); experiment: Inhibition of TYK2 (unknown origin)
[22] = tested on: T2, Receptor-type tyrosine-protein kinase FLT3 (Homo sapiens), P36888 [D835Y]; experiment: Inhibition of FLT3-D835Y mutant (unknown origin) expressed in mouse Ba/F3 cells assessed as decrease in STAT5 phosphorylation at 10 nM by Western blot analysis; assay type: cell-based; conditions: BaF3
[23] = target: T1, Focal adhesion kinase 1; experiment: Inhibition of FAK in human HCT-116 cells assessed as inhibition of paxillin phosphorylation at 0.5 to 5 uM incubated for 24 hrs by Western blot analysis; assay type: cell-based; conditions: dose 0.5-5 µM
[24] = target: Ephrin type-B receptor 1 (Homo sapiens, UniProt P54762); experiment: Inhibition of EphB1 (unknown origin)
[25] = tested on: MV4-11; experiment: In vivo antitumor activity against human MV4-11 cells xenografted in mouse assessed as tumor growth inhibition at 20 mg/kg, po; assay type: functional; conditions: MV4-11, po
[26] = tested on: HCT-116; experiment: Antiproliferative activity against human HCT-116 cells assessed as growth inhibition measured after 72 hrs by CellTiter-Glo assay; assay type: functional; conditions: Homo sapiens, HCT-116
[27] = Antiproliferative activity against human A375P cells assessed as growth inhibition measured after 72 hrs by CellTiter-Glo assay; assay type: functional; conditions: Homo sapiens, A375P
[28] = tested on: MDA-MB-231; experiment: Induction of apoptosis in human MDA-MB-231 cells assessed as cleaved PARP at 0.1 to 10 uM incubated for 24 hrs by Western blot analysis; assay type: functional, cell-based; conditions: dose 0.1-10 µM

T1 sequence (Q05397 2-1052 limits assumed): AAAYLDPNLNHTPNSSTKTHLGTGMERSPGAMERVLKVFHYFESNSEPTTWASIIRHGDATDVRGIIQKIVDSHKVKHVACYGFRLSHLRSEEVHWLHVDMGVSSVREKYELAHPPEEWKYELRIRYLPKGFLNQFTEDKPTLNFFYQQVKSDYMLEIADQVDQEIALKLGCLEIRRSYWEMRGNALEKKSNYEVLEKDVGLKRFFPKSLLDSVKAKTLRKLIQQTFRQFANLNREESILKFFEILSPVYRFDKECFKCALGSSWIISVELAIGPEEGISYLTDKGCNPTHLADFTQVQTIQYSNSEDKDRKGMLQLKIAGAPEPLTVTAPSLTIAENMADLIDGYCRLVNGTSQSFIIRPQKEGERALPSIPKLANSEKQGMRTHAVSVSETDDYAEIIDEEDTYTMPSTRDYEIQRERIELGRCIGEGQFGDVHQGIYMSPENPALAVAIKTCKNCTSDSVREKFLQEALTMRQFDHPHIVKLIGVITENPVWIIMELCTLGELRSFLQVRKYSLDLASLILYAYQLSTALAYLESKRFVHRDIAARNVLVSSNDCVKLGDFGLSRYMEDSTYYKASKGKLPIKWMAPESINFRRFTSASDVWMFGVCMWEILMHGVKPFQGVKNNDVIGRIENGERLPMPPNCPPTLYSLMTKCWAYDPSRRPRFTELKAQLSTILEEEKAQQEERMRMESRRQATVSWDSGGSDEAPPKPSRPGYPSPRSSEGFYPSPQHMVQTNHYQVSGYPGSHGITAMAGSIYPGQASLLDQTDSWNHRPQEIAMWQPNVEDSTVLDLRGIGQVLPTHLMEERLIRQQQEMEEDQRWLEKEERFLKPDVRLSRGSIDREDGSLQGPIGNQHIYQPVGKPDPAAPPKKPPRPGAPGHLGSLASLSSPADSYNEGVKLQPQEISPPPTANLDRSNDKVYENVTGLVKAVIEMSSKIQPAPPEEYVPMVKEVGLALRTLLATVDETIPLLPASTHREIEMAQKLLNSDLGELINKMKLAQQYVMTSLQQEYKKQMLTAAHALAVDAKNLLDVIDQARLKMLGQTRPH
Chain of Non-receptor tyrosine-protein kinase TYK2 (P29597 whole entry): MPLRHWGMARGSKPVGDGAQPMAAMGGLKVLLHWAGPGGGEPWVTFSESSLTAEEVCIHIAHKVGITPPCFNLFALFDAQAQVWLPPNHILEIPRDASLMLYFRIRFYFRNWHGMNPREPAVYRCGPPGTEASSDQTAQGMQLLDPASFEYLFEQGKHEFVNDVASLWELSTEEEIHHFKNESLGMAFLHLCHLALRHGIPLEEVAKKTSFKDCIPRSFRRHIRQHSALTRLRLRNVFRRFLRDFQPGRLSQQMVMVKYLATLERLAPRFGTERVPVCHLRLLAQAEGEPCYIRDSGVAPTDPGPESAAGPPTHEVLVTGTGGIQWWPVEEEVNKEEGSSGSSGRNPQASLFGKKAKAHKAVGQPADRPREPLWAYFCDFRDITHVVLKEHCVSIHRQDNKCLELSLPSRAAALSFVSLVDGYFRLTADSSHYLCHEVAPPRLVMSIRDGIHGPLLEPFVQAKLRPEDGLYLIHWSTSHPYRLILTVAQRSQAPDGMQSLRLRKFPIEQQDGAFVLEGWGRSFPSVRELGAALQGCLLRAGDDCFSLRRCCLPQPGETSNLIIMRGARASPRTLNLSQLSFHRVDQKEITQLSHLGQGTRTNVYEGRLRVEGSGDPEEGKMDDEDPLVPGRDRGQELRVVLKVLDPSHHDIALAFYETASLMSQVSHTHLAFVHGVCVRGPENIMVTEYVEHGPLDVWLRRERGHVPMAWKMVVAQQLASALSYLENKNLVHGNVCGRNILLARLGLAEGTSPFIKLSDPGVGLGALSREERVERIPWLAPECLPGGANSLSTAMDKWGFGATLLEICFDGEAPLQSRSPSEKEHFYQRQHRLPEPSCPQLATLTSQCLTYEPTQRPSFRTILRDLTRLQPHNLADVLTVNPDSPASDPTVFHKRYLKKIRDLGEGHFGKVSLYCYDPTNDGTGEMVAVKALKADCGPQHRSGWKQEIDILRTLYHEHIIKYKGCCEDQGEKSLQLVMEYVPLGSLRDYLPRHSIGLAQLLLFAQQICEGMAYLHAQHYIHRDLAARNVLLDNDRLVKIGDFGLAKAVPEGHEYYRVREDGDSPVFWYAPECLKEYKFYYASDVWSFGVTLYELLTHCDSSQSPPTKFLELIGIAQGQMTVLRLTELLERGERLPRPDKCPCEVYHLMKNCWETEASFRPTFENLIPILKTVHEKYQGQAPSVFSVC
Chain of CYP2C9 (P11712 whole entry): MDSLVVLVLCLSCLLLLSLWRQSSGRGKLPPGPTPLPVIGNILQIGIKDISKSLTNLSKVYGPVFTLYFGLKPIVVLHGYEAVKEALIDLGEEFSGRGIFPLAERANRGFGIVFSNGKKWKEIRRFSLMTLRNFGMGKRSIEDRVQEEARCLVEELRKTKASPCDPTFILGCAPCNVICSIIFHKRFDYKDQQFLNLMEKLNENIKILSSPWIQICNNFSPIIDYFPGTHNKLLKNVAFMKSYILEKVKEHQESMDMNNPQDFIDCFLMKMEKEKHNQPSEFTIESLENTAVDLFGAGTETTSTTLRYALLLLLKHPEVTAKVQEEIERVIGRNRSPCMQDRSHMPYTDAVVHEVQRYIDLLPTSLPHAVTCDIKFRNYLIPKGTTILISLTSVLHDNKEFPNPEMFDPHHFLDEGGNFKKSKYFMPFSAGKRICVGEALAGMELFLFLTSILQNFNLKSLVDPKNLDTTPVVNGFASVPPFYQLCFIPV
Chain of Tyrosine-protein kinase Fes/Fps (P07332 whole entry, the tested form may be a part): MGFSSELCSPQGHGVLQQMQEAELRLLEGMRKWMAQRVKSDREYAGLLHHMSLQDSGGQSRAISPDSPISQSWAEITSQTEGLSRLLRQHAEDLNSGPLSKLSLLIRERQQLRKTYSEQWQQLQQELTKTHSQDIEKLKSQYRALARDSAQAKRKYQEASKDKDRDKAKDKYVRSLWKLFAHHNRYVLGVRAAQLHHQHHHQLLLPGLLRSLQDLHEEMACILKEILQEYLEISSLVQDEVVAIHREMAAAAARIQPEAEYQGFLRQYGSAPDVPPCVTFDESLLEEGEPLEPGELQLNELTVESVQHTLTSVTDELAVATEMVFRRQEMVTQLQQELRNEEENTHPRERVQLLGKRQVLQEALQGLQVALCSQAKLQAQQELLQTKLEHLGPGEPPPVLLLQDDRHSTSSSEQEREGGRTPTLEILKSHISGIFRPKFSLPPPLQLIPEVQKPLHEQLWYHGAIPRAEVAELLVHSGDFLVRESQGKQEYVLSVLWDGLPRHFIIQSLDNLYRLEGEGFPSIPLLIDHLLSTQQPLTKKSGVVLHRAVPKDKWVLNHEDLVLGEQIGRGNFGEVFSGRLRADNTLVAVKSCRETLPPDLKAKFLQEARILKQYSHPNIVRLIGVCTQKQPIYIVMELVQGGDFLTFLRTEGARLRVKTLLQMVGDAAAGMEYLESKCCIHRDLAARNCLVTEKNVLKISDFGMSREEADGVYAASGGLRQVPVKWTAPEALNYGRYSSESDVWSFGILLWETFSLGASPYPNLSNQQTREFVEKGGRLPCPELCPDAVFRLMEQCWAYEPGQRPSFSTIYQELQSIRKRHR
Chain of Tyrosine-protein kinase JAK1 (P23458 whole entry): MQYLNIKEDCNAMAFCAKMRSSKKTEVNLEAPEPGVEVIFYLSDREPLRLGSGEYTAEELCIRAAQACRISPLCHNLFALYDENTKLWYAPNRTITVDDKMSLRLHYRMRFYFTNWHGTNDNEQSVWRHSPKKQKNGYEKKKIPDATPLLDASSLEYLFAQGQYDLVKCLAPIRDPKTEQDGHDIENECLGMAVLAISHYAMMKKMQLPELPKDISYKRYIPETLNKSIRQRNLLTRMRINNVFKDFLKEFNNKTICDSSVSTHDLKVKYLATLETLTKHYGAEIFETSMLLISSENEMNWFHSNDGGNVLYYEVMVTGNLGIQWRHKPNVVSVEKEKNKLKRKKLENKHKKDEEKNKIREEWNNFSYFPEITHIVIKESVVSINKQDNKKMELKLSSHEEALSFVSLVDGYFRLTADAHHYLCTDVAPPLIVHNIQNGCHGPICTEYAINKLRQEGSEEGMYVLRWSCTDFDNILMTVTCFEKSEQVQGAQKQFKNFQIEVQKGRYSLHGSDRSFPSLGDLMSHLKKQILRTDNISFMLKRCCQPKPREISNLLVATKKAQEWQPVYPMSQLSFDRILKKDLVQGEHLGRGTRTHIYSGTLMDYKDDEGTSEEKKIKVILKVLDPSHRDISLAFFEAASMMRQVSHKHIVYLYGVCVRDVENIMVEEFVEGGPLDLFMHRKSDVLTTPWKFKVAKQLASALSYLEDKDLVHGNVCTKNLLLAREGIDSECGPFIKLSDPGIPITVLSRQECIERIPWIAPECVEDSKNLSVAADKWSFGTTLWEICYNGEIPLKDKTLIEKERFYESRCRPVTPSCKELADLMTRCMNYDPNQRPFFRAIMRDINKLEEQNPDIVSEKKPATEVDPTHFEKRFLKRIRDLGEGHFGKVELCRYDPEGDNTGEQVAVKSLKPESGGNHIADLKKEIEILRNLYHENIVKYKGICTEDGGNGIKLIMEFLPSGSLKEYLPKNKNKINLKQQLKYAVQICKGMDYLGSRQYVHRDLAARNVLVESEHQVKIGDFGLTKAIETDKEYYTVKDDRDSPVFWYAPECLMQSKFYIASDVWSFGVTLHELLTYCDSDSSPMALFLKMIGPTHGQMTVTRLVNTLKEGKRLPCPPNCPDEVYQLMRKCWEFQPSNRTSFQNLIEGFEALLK

Structure (SMILES): CCN1CCN(c2ccc(Nc3ncc4scc(-c5cccc(NS(C)(=O)=O)c5)c4n3)cc2)CC1
- inhibition [1]: 95%
- IC50 [2]: 4.4 nM
- Activity [3]: Active
- inhibition [4]: 91.1%
- inhibition [5]: Active
- remaining at 1 h, 1 µM [6]: 80.2%
- IC50 [7]: 2.9 nM
- IC50 [8]: 260 nM
- inhibition at 10 µM [9]: 100%
- inhibition [10]: Active
- inhibition at 10 µM [11]: 93.6%
- IC50 [12]: 1.8 nM
- inhibition at 1 µM [13]: 50%
- GI50 [14]: 0.4 nM
- inhibition in vivo at 50 mg/kg [15]: 96%
- Activity [16]: Active
- inhibition [17]: 95.6%
- inhibition [18]: Active
- Activity [19]: Non-Toxic
- IC50 [20]: 7.7 nM
- IC50 [21]: 4.3 nM
- inhibition [22]: 100%
- inhibition [23]: Active
- IC50 [24]: 29.8 nM
- inhibition in vivo at 20 mg/kg [25]: 65%
- GI50 [26]: 160 nM
- GI50 [27]: 370 nM
- Activity [28]: Active
